Measured values: US4009166A, “Pyrido(2,3-d) pyrimidinones” (Hisamitsu Pharmaceutical Co., Inc., priority 1974, dated 1977)
Counter-ions that a name gives are not always drawn. Like-named read-outs stand apart in the source and are kept apart here.

Key:
[1] = tested on: carrageenin edema in Wistar-strain male rats; assay: Anti-inflammatory effect (carrageenin edema of the hind paw); format: in vivo; conditions: for inhibition in vivo at 10 mg/kg / inhibition in vivo at 50 mg/kg: Rattus norvegicus, po; for inhibition in vivo at 10 mg/kg: read-out: anti-inflammatory effect dose(mg/kg) 10 (inhibition percentage of carrageenin edema); for inhibition in vivo at 50 mg/kg: read-out: anti-inflammatory effect dose(mg/kg) 50 (inhibition percentage of carrageenin edema)
Experimental: 2. Anti-inflammatory effect
A group of five Wistar-strain male rats (100-150 g) were orally administered with each test compound suspended in 0.5% tragacanth-saline solution. After 30 minutes 0.5-1.0% carrageenin suspended in the water for injection was injected subcutaneously to a hind paw. After 3 hours the carrageenin edema was measured by volume and the inhibition percentage was determined with respect to the results for the control animals. The inhibition percentages were shown with the notations as follows: […]

[2] = tested on: writhing syndrome in dd-strain male mice; assay: Analgetic effect (acetic acid writhing syndrome); format: in vivo; conditions: Mus musculus, po, orally, 0.6% acetic acid writhing, Litchfield-Wilcoxon, read-out: analgetic effect ED50 (95 % C.L.)
Experimental: 3. Analgetic effect Each test compound suspended in 0.5% tragacanth-saline solution was orally administered to dd-strain male mice (18-20 g). After one hour 0.6% acetic acid solution was intraperitoneally injected in a volume of 0.1 ml/10 g.

dd-strain male mice = conditions: deaths 72 hours after administration
Experimental: The lethal dose was estimated from the death of animals 72 hours after administration.

[3] = tested on: righting reflex of dd-strain male mice; assay: Central nervous system depressive effect (disappearance of righting reflex); format: in vivo; conditions: Mus musculus, ip, read-out: C N S depressive effect (dose required for the disappearance of righting reflex)
Experimental: 4. Central nervous system depressive effect
Each test compound suspended in 0.5% tragacanth-saline solution was injected intraperitoneally to dd-strain male mice (16-24 g). The disappearance of righting reflex was observed under noiseless circumstances. The dose required for the disappearance of righting reflex is indicated with the following notations: […]

[4] = tested on: writhing syndrome in dd-strain male mice; assay: Analgetic effect (acetic acid writhing syndrome); format: in vivo; conditions: Mus musculus, ip, read-out: analgetic effect ED50 (95 % C.L.), i.p.
[5] = 10 mg/kg orally, rats, edema volume 3 hours after carrageenin
[6] = 50 mg/kg orally, rats, edema volume 3 hours after carrageenin

SMILES | inhibition in vivo at 10 mg/kg [1, 5] | inhibition in vivo at 50 mg/kg [1, 6] | ED50 [2] | acute toxicity i.p. (lethal dose) (dd-strain male mice) | acute toxicity p.o. (lethal dose) (dd-strain male mice) | minimal effective dose ([3]; intraperitoneally, mice) | ED50 [4] | minimal effective dose [3] | inhibition in vivo at 10 mg/kg ([1]; 3 h) | inhibition in vivo at 50 mg/kg ([1]; 3 h) | anti-inflammatory effect dose(mg/kg) 10 (inhibition percentage of carrageenin edema) [1, 5]
CC(C)N1CN(c2cccc(Cl)c2)c2ncccc2C1=O | 16 to 30% | 31 to 45% | > 100 mg/kg | – | – | – | – | – | – | – | –
CC(C)N1CN(c2cccc([N+](=O)[O-])c2)c2ncccc2C1=O | 46 to 60% | 46 to 60% | 4.7 mg/kg | > 1000 mg/kg | < 2000 mg/kg | 100 to 300 mg/kg | – | – | – | – | –
CC(C)N1Cc2cccnc2N(c2cccc(F)c2)C1=O | 31 to 45% | > 61% | 4.5 mg/kg | – | – | 3 to 10 mg/kg | – | – | – | – | –
CC(C)N1Cc2cccnc2N(c2cccc(C(F)(F)F)c2)C1=O | < 15% | 46 to 60% | 6.7 mg/kg | > 1000 mg/kg | 2000 mg/kg | 10 to 30 mg/kg | – | – | – | – | –
CC(C)N1Cc2cccnc2N(c2ccc(Cl)c(Cl)c2)C1=O | 46 to 60% | > 61% | 16.3 mg/kg | 1000 mg/kg | 2000 mg/kg | 3 to 10 mg/kg | – | – | – | – | –
Cc1c(N(C)C)c(=O)n(-c2ccccc2)n1C [aminopyrine, reference compound] | < 15% | < 15% | – | 100 to 300 mg/kg | – | – | 56 mg/kg | – | – | – | –
CN1C(=O)CN=C(c2ccccc2)c2cc(Cl)ccc21 [diazepam, reference compound] | – | – | – | – | – | – | – | 30 to 100 mg/kg | < 15% | 16 to 30% | –
COCN1CN(c2cccc(Cl)c2)c2ncccc2C1=O [drawing 119/CH2 OCH3] | 16 to 30% | 16 to 30% | > 100 mg/kg | – | – | – | – | – | – | – | –
CCN1CN(c2cccc(Br)c2)c2ncccc2C1=O [drawing 121/C2 H5] | – | 31 to 45% | > 100 mg/kg | > 1000 mg/kg | – | 30 to 100 mg/kg | – | – | – | – | –
CN1CN(c2cccc(Br)c2)c2ncccc2C1=O [drawing 121/CH3] | – | < 15% | > 100 mg/kg | > 1000 mg/kg | – | 30 to 100 mg/kg | – | – | – | – | –
CCN1CN(c2cccc(C(F)(F)F)c2)c2ncccc2C1=O [drawing 122/C2 H5] | 16 to 30% | > 61% | > 100 mg/kg | > 1000 mg/kg | – | 30 to 100 mg/kg | – | – | – | – | –
CN1CN(c2cccc(C(F)(F)F)c2)c2ncccc2C1=O [drawing 122/CH3] | 16 to 30% | < 15% | – | – | – | – | – | – | – | – | –
CCN1CN(c2cccc([N+](=O)[O-])c2)c2ncccc2C1=O [drawing 123/C2 H5] | 31 to 45% | > 61% | 1.95 mg/kg | 1000 mg/kg | 2000 mg/kg | 30 to 100 mg/kg | – | – | – | – | –
COCN1CN(c2cccc([N+](=O)[O-])c2)c2ncccc2C1=O [drawing 123/CH2 OCH3 . HCl] | 46 to 60% | 46 to 60% | 2.7 mg/kg | – | < 2000 mg/kg | – | – | – | – | – | –
CN1CN(c2cccc([N+](=O)[O-])c2)c2ncccc2C1=O [drawing 123/CH3, 1-(m-nitrophenyl)-3-methyl-4-oxo-1,2,3,4-tetrahydropyrido[2,3-d]pyrimidine] | < 15% | 16 to 30% | 22 mg/kg | > 1000 mg/kg | – | > 1000 mg/kg | – | – | – | – | –
CCN1Cc2cccnc2N(c2ccccc2)C1=O [drawing 126/C2 H5] | 46 to 60% | 46 to 60% | 2.1 mg/kg | 300 mg/kg | – | 3 to 10 mg/kg | – | – | – | – | –
CN1Cc2cccnc2N(c2ccccc2)C1=O [drawing 126/CH3] | 31 to 45% | 46 to 60% | 13 mg/kg | – | – | 3 to 10 mg/kg | – | – | – | – | –
CCN1Cc2cccnc2N(c2cccc(F)c2)C1=O [drawing 127/C2 H5] | > 61% | > 61% | 4.4 mg/kg | – | – | < 3 mg/kg | – | – | – | – | –

SMILES | inhibition in vivo at 10 mg/kg [1, 5] | inhibition in vivo at 50 mg/kg [1, 6] | ED50 [2] | acute toxicity i.p. (lethal dose) (dd-strain male mice) | acute toxicity p.o. (lethal dose) (dd-strain male mice) | minimal effective dose ([3]; intraperitoneally, mice) | ED50 [4] | minimal effective dose [3] | inhibition in vivo at 10 mg/kg ([1]; 3 h) | inhibition in vivo at 50 mg/kg ([1]; 3 h) | anti-inflammatory effect dose(mg/kg) 10 (inhibition percentage of carrageenin edema) [1, 5]
CCN1Cc2cccnc2N(c2ccc(F)cc2)C1=O [drawing 129/C2 H5] | 46 to 60% | 46 to 60% | 4.9 mg/kg | – | – | 10 to 30 mg/kg | – | – | – | – | –
CN1Cc2cccnc2N(c2ccccc2Cl)C1=O [drawing 130/CH3] | – | 16 to 30% | 44 mg/kg | – | – | 30 to 100 mg/kg | – | – | – | – | –
C=CCN1Cc2cccnc2N(c2cccc(Cl)c2)C1=O [drawing 132/CH2 CHCH2] | 46 to 60% | 46 to 60% | 1.2 mg/kg | – | – | 3 to 10 mg/kg | – | – | – | – | –
COCN1Cc2cccnc2N(c2cccc(Cl)c2)C1=O [drawing 132/CH2 OCH3] | 46 to 60% | > 61% | 1.6 mg/kg | – | – | 3 to 10 mg/kg | – | – | – | – | –
CN1Cc2cccnc2N(c2cccc(Cl)c2)C1=O [drawing 132/CH3, 1-(m-chlorophenyl)-3-methyl-2-oxo-1,2,3,4-tetrahydropyrido[2,3-d]pyrimidine] | 46 to 60% | > 61% | 13 mg/kg | – | – | < 3 mg/kg | – | – | – | – | –
CCN1Cc2cccnc2N(c2ccc(Cl)cc2)C1=O [drawing 133/C2 H5] | – | 46 to 60% | 49 mg/kg | – | – | < 3 mg/kg | – | – | – | – | + ++
CCN1Cc2cccnc2N(c2cccc(Br)c2)C1=O [drawing 134/C2 H5] | 46 to 60% | 46 to 60% | 2.85 mg/kg | 100 300 mg/kg | – | < 3 mg/kg | – | – | – | – | –
CCCN1Cc2cccnc2N(c2cccc(Br)c2)C1=O [drawing 134/CH2 CH2 CH3] | 46 to 60% | 46 to 60% | 2.65 mg/kg | – | < 2000 mg/kg | 3 to 10 mg/kg | – | – | – | – | –
CCN1Cc2cccnc2N(c2cccc(C(F)(F)F)c2)C1=O [drawing 135/C2 H5, 1-(m-trifluoromethylphenyl)-3-ethyl-2-oxo-1,2,3,4-tetrahydropyrido[2,3-d]pyrimidine] | 31 to 45% | 46 to 60% | 6.3 mg/kg | – | – | 3 to 10 mg/kg | – | – | – | – | –
O=C1N(CCO)Cc2cccnc2N1c1cccc(C(F)(F)F)c1 [drawing 135/CH2 CH2 OH] | – | 16 to 30% | 55 mg/kg | > 1000 mg/kg | > 2000 mg/kg | > 1000 mg/kg | – | – | – | – | –
O=C(O)CN1Cc2cccnc2N(c2cccc(C(F)(F)F)c2)C1=O [drawing 135/CH2 COOH] | – | – | > 100 mg/kg | > 1000 mg/kg | > 2000 mg/kg | > 1000 mg/kg | – | – | – | – | –
COCN1Cc2cccnc2N(c2cccc(C(F)(F)F)c2)C1=O [drawing 135/CH2 OCH3] | – | 31 to 45% | 8.1 mg/kg | – | – | 10 to 30 mg/kg | – | – | – | – | –
CN1Cc2cccnc2N(c2cccc(C(F)(F)F)c2)C1=O [drawing 135/CH3, 1-(m-trifluoromethylphenyl)-3-methyl-2-oxo-1,2,3,4-tetrahydropyrido[2,3-d]pyrimidine] | 16 to 30% | 46 to 60% | 6.6 mg/kg | – | < 500 mg/kg | 3 to 10 mg/kg | – | – | – | – | –
CCN1Cc2cccnc2N(c2ccc(Cl)c(Cl)c2)C1=O [drawing 137/C2 H5] | 46 to 60% | 46 to 60% | 1.3 mg/kg | – | – | < 3 mg/kg | – | – | – | – | –
O=C1N(CCF)Cc2cccnc2N1c1ccc(Cl)c(Cl)c1 [drawing 137/CH2 CH2 F] | > 61% | – | 1 mg/kg | – | – | 3 to 10 mg/kg | – | – | – | – | –
O=C(O)c1ccccc1Nc1cccc(C(F)(F)F)c1 [flufenamic acid, reference compound] | < 15% | 16 to 30% | 180 mg/kg | 300 to 1000 mg/kg | – | > 1000 mg/kg | – | – | – | – | –
Cc1ccccc1-n1c(C)nc2ccccc2c1=O [methaqualone, reference compound] | – | – | – | – | – | – | – | 10 to 30 mg/kg | – | – | –
CCCCC1C(=O)N(c2ccccc2)N(c2ccccc2)C1=O [phenylbutazone, reference compound] | < 15% | 31 to 45% | 290 mg/kg | – | – | 300 to 1000 mg/kg | – | – | – | – | –
